Data set [1] can be described thus: pH upon addition of test substance to 0.1 M HCl solution (pH 1.2), pH meter. It is filed as physicochemical. How it is done: Test substances were dissolved in various volumes of 0.1 M HCl solution (pH 1.2) at concentrations of 1, 2, 4, 10, 20, 50, 100 and 150 mg/ml. The solution pH was determined using an MP-103 pH-meter (MRC, Israel) equipped with ELC-10-00 electrode (MRC, Israel) or with a thin electrode HI1083 (HANNA instruments Inc.), shortly after dissolution and up to 26 hours later in order to ensure that the pH remained stable. The highest pH value obtained during the experimental time period was recorded in order to compare the acid-neutralizing capacity of each substance.
SNAC and the basic polymers sodium alginate, sodium carboxymethylcellulose in non-crosslinked (Na-CMC) and crosslinked (croscarmellose sodium, CCS) forms, and sodium starch glycolate (SSG) were dissolved in various volumes of 0.1 M HCl solution (pH 1.2) at concentrations of 1, 2, 4, 10, 20, 50, 100 and 150 mg/ml, and the solution pH was determined using an MP-103 pH-meter (MRC, Israel) equipped with ELC-10-00 electrode (MRC, Israel), as described in the Materials and Methods section hereinabove.
In order to obtain a beneficial rise in pH with a reduced loss of the active form of the absorption enhancer, the effect of various concentrations of different polymers containing carboxylate groups (sodium alginate, sodium starch glycolate, sodium carboxymethylcellulose, and croscarmellose sodium) on pH upon addition to a 0.1 M HCl solution (pH 1.2) was also evaluated. FIG. 2A presents pH values determined using an MP-103 pH-meter (MRC, Israel) equipped with ELC-10-00 electrode (MRC, Israel) and FIG. 2B presents pH values determined using an MP-103 pH-meter (MRC, Israel) equipped with a thin electrode HI1083 (HANNA instruments Inc.).

The conditions of data set [2]: in vivo; cited from earlier work.

Consider `O=C(O)CCCCCCCNC(=O)c1ccccc1O` [SNAC, sodium 8-N-(2-hydroxybenzoyl)aminocaprylate], for which the entries for the “pH 5 minutes after dissolution” value in data set [1] (10 mg/ml SNAC added to HCl solution (pH 1.2)), in data set [1] (20 mg/ml SNAC added to HCl solution (pH 1.2)) and in data set [1] (100 mg/ml SNAC added to HCl solution (pH 1.2)) were “about 1.5”, 6.5 and “about 7.5”, respectively.

In the case of “Semaglutide: fatty acid derivative of a GLP-1 homolog”, the half-life entry in data set [2] is on record as “about 7 days”.
